# Assay results published in patent US11407736B2 (priority 2019, dated 2022).
# Counter-ions that a name gives are not always drawn. Like-named read-outs stand apart in the source and are kept apart here.
# Experiments:
# [1] = tested on: U937 cells; test: U937 cell necroptosis assay (TNFa + zVAD, CellTiter-Glo); type: cell-based, human; details: Homo sapiens
# How it was run: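 Necroptosis was induced with TNFa at 2 ng/mL final for 18 h at 37 °C, following 1 h compound pre-incubation in the presence of zVAD-fmk (60 uM for U937 plating medium, 40 uM for L929 medium). Luminescent CellTiter-Glo signal gave relative cell survival.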
# [2] = tested on: L929 cells; test: L929 cell necroptosis assay (TNFa + zVAD, CellTiter-Glo); type: cell-based, murine; details: Mus musculus
# How it was run: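 Necroptosis was read as CellTiter-Glo luminescence 18 hours after TNFa stimulation at 37° C, 5% CO2. Prior to that, L929 cells (10K/well, plated 18 h) received fresh medium with 40 uM zVAD-fmk plus 4-fold serially diluted compound.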
# [3] = biological target: RIPK1 (Homo sapiens (Human), UniProt Q13546); test: RIPK1 ADP-Glo biochemical kinase assay
# Method: The final reaction volume was 5.0ul.
# Adding 5 μl of ADP-Glo™ terminated the reaction.
# [4] = U-937, read-out: U937 Zvad TNF CTG Recovery, U937, TNFa + zVAD (IC50), U937 cells, TNFa + zVAD
# [5] = L929, read-out: L929-CTG-recovery, L929, TNFa + zVAD (IC50), L929 cells, TNFa + zVAD
# [6] = read-out: RIPK1 ADP-Glo Kinase (IC50)
# [7] = U-937, U937 cells, TNFa + zVAD, read-out: U937 Zvad TNF CTG Recovery, U937, TNFa + zVAD (IC50)
# [8] = L929, L929 cells, TNFa + zVAD, read-out: L929-CTG-recovery, L929, TNFa + zVAD (IC50)
# RIPK1, sequence (Q13546 whole entry, species assumed): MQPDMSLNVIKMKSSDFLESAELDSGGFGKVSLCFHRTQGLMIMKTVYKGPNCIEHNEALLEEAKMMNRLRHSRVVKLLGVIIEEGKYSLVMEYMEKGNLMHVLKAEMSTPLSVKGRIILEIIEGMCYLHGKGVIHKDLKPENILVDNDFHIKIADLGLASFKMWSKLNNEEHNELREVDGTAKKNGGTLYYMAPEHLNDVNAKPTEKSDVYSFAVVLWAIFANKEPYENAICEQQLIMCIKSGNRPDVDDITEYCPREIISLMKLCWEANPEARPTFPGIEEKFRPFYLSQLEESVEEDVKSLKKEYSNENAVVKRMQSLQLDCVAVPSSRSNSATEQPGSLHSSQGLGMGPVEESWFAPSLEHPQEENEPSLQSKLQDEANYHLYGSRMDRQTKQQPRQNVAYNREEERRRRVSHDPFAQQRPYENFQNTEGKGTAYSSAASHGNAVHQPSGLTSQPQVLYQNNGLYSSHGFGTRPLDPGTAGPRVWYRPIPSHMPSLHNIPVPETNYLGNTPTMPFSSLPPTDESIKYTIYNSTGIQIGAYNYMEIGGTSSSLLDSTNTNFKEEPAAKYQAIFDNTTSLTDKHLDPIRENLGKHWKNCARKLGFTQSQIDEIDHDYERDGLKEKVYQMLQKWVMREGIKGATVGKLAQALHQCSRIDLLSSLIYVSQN
Structure (SMILES),"IC50 [1, 4] [nM]","IC50 [2, 5] [nM]","IC50 [3, 6] [nM]","IC50 [1, 7] [nM]","IC50 [2, 8] [nM]",IC50 [3] [nM],"IC50 ([2]; L929 cells, TNFa + zVAD, read-out: L929-CTG-recovery, L929, TNFa + zVAD (IC50)) [nM]"
"CN1C(=O)[C@@H](NC(=O)n2cc(Cc3ccccc3)cn2)COc2ccc(C#CC3(O)COC3)cc21 [Compound I-216, (S)-4-Benzyl-N-(7-((3-hydroxyoxetan-3-yl)ethynyl)-5-methyl-4-oxo-2,3,4,5-tetrahydrobenzo[b][1,4]oxazepin-3-yl)-1H-pyrazole-1-carboxamide]",0.5,28.5,18.8,–,–,–,–
"CN1C(=O)[C@@H](NC(=O)n2cc(Cc3ccccc3)cn2)COc2ccc(N3CC4(CCOCC4)C3)cc21 [Compound I-217, (S)-4-Benzyl-N-(5-methyl-4-oxo-7-(7-oxa-2-azaspiro[3.5]nonan-2-yl)-2,3,4,5-tetrahydrobenzo[b][1,4]oxazepin-3-yl)-1H-pyrazole-1-carboxamide]",–,–,–,0.5,597,23.9,–
"CN1C(=O)[C@@H](NC(=O)n2cc(Cc3ccc(F)cc3)cn2)COc2ccc(C#CC(C)(C)O)cc21 [Compound I-218, (S)-4-(4-fluorobenzyl)-N-(7-(3-hydroxy-3-methylbut-1-yn-1-yl)-5-methyl-4-oxo-2,3,4,5-tetrahydrobenzo[b][1,4]oxazepin-3-yl)-1H-pyrazole-1-carboxamide]",–,–,24.5,2.6,75.8,–,–
"CN1C(=O)[C@@H](NC(=O)n2cc(Cc3ccccc3)cn2)COc2ccc(C#CC3(O)CCC3)cc21 [Compound I-219, (S)-4-Benzyl-N-(7-((1-hydroxycyclobutyl)ethynyl)-5-methyl-4-oxo-2,3,4,5-tetrahydrobenzo[b][1,4]oxazepin-3-yl)-1H-pyrazole-1-carboxamide]",–,–,28.4,0.6,23.6,–,–
"Cc1c(Cc2ccccc2)cnn1C(=O)N[C@H]1COc2ccc(C#CC(C)(C)O)cc2N(C)C1=O [Compound I-220, (S)-4-Benzyl-N-(7-(3-hydroxy-3-methylbut-1-yn-1-yl)-5-methyl-4-oxo-2,3,4,5-tetrahydrobenzo[b][1,4]oxazepin-3-yl)-5-methyl-1H-pyrazole-1-carboxamide]",–,–,35.5,8.9,1920,–,–
"CN1C(=O)[C@@H](NC(=O)n2cc(Cc3ccc(F)cc3)cn2)COc2ccc(C#CC3(O)CCC3)cc21 [Compound I-221, (S)-4-(4-Fluorobenzyl)-N-(7-((l-hydroxycyclobutyl)ethynyl)-5-methyl-4-oxo-2,3,4,5-tetrahydrobenzo[b][1,4]oxazepin-3-yl)-1H-pyrazole-1-carboxamide]",–,–,39.7,2.5,72.2,–,–
"CN1C(=O)[C@@H](NC(=O)n2cc(Cc3ccc(F)cc3)cn2)COc2ccc(C#CC3(O)COC3)cc21 [Compound I-222, (S)-4-(4-Fluorobenzyl)-N-(7-((3-hydroxyoxetan-3-yl)ethynyl)-5-methyl-4-oxo-2,3,4,5-tetrahydrobenzo[b][1,4]oxazepin-3-yl)-1H-pyrazole-1-carboxamide]",–,–,16.6,1.4,62.5,–,–
"CN1C(=O)[C@@H](NC(=O)n2ccc(Cc3ccc(F)cc3)n2)COc2ccc(C#CC3(O)CCC3)cc21 [Compound I-223, (S)-3-(4-Fluorobenzyl)-N-(7-((1-hydroxycyclobutyl)ethynyl)-5-methyl-4-oxo-2,3,4,5-tetrahydrobenzo[b][1,4]oxazepin-3-yl)-1H-pyrazole-1-carboxamide]",–,–,141,627,10300,–,–
"CN1C(=O)[C@@H](NC(=O)n2cc(Cc3ccc(F)cc3)cn2)COc2ccc(C#CC3(O)CC4(CCC4)C3)cc21 [Compound I-224, (S)-4-(4-Fluorobenzyl)-N-(7-((2-hydroxyspiro[3.3]heptan-2-yl)ethynyl)-5-methyl-4-oxo-2,3,4,5-tetrahydrobenzo[b][1,4]oxazepin-3-yl)-1H-pyrazole-1-carboxamide]",–,–,312,1.5,220,–,–
"CN1C(=O)[C@@H](NC(=O)n2cc(Cc3ccc(F)cc3)cn2)COc2ccc(C#CC3(O)CC4(COC4)C3)cc21 [Compound I-225, (S)-4-(4-Fluorobenzyl)-N-(7-((6-hydroxy-2-oxaspiro[3.3]heptan-6-yl)ethynyl)-5-methyl-4-oxo-2,3,4,5-tetrahydrobenzo[b][1,4]oxazepin-3-yl)-1H-pyrazole-1-carboxamide]",–,–,22.7,0.5,32.5,–,–
"CN1C(=O)[C@@H](NC(=O)n2cc(Cc3ccc(F)cc3)cn2)COc2ccc(C#CC(C)(C)N)cc21 [Compound I-226, (S)—N-(7-(3-amino-3-methylbut-1-yn-1-yl)-5-methyl-4-oxo-2,3,4,5-tetrahydrobenzo[b][1,4]oxazepin-3-yl)-4-(4-fluorobenzyl)-1H-pyrazole-1-carboxamide]",–,–,33,17,1770,–,–
"CN1C(=O)[C@@H](NC(=O)c2nnc(C3(c4ccccc4)CC3)o2)COc2ccc(N3CC4(CCOCC4)C3)cc21 [Compound I-235, (S)—N-(5-methyl-4-oxo-7-(7-oxa-2-azaspiro[3.5]nonan-2-yl)-2,3,4,5-tetrahydrobenzo[b][1,4]oxazepin-3-yl)-5-(1-phenylcyclopropyl)-1,3,4-oxadiazole-2-carboxamide]",–,–,62.1,13.2,–,–,1070
"CN1C(=O)[C@@H](NC(=O)c2nnc(Cc3ccccc3)o2)COc2ccc(N3CC4(CCOCC4)C3)cc21 [Compound I-236, (S)-5-benzyl-N-(5-methyl-4-oxo-7-(7-oxa-2-azaspiro[3.5]nonan-2-yl)-2,3,4,5-tetrahydrobenzo[b][1,4]oxazepin-3-yl)-1,3,4-oxadiazole-2-carboxamide]",6.6,258,55.9,–,–,–,–
"CN1C(=O)[C@@H](NC(=O)n2cc(Cc3ccc(F)cc3F)cn2)COc2ccc(Br)cc21 [Compound I-237, (S)—N-(7-Bromo-5-methyl-4-oxo-2,3,4,5-tetrahydrobenzo[b][1,4]oxazepin-3-yl)-4-(2,4-difluorobenzyl)-1H-pyrazole-1-carboxamide]",–,–,–,135,15500,43.1,–
"CN1C(=O)[C@@H](NC(=O)n2cc(Cc3ccc(F)cc3F)cn2)COc2ccc(C#CC(C)(C)CNC(=O)OC(C)(C)C)cc21 [Compound I-240, Tert-butyl (S)-(4-(3-(4-(2,4-difluorobenzyl)-1H-pyrazole-1-carboxamido)-5-methyl-4-oxo-2,3,4,5-tetrahydrobenzo[b][1,4]oxazepin-7-yl)-2,2-dimethylbut-3-yn-1-yl)carbamate]",–,–,–,15.1,944,265,–
"CN1C(=O)[C@@H](NC(=O)n2cc(Cc3ccc(F)cc3F)cn2)COc2ccc(C#CC(C)(C)CN)cc21 [Compound I-241, (S)—N-(7-(4-Amino-3,3-dimethylbut-1-yn-1-yl)-5-methyl-4-oxo-2,3,4,5-tetrahydrobenzo[b][1,4]oxazepin-3-yl)-4-(2,4-difluorobenzyl)-1H-pyrazole-1-carboxamide hydrochloride]",–,–,–,62.6,2100,50.1,–
"CN1C(=O)[C@@H](NC(=O)c2cc(Oc3ccccc3)ccn2)COc2cc(C#Cc3ccccn3)ccc21 [II-16, (S)—N-(5-methyl-4-oxo-8-(pyridin-2-ylethynyl)-2,3,4,5-tetrahydrobenzo[b][1,4]oxazepin-3-yl)-4-phenoxypicolinamide]",–,–,45.2,3.4,2120,–,–
"CN1C(=O)[C@@H](NC(=O)c2cc(Oc3ccc(C#N)cc3)ccn2)COc2ccc(C#CC(C)(C)O)cc21 [II-18, (S)-4-(4-cyanophenoxy)-N-(7-(3-hydroxy-3-methylbut-1-yn-1-yl)-5-methyl-4-oxo-2,3,4,5-tetrahydrobenzo[b][1,4]oxazepin-3-yl)picolinamide]",–,–,51.8,286,6640,–,–
"CN1C(=O)[C@@H](NC(=O)c2cc(Oc3ccc(C#N)cc3)ccn2)COc2ccc(C#CC3(O)COC3)cc21 [II-19, (S)-4-(4-cyanophenoxy)-N-(7-((3-hydroxyoxetan-3-yl)ethynyl)-5-methyl-4-oxo-2,3,4,5-tetrahydrobenzo[b][1,4]oxazepin-3-yl)picolinamide]",55.5,2890,34.9,–,–,–,–
"CN1C(=O)[C@@H](NC(=O)c2cc(-c3ccccc3)ccn2)COc2ccc(C#CC(C)(C)O)cc21 [II-20, (S)—N-(7-(3-hydroxy-3-methylbut-1-yn-1-yl)-5-methyl-4-oxo-2,3,4,5-tetrahydrobenzo[b][1,4]oxazepin-3-yl)-4-phenylpicolinamide]",31.6,14600,40.3,–,–,–,–
"CN1C(=O)[C@@H](NC(=O)c2cc(Oc3cccc(C#N)c3)ccn2)COc2cc(C#CC(C)(C)O)ccc21 [II-21, (S)-4-(3-cyanophenoxy)-N-(8-(3-hydroxy-3-methylbut-1-yn-1-yl)-5-methyl-4-oxo-2,3,4,5-tetrahydrobenzo[b][1,4]oxazepin-3-yl)picolinamide]",–,–,40.9,14.3,3440,–,–
